{
  "source": "paper PMC5681660",
  "about": "“Reduced hepatitis B and D viral entry using clinically applied drugs as novel inhibitors of the bile acid transporter NTCP” (Scientific Reports, 2017)",
  "key": {"human NTCP [1]": {"biological_target": "T1, human NTCP (Homo sapiens, UniProt Q14973)", "T1 sequence (Q14973 1-349)": "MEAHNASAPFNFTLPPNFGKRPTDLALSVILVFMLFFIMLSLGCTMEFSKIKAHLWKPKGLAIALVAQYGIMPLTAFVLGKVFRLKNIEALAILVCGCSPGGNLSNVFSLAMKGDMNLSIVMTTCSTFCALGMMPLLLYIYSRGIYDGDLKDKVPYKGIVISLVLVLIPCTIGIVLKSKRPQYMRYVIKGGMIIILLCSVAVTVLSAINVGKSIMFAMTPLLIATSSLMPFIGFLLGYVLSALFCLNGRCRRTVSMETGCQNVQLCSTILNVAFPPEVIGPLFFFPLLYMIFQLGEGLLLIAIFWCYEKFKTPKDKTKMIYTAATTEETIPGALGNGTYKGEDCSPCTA", "test": "Screening fluorescent competitive Myrcludex B-FITC binding assay (96-well, 10 µM drug)"}, "human NTCP [2]": {"biological_target": "T1, human NTCP", "test": "Screening taurocholate uptake assay (96-well, [14C]taurocholate, 10 µM drug)"}, "[3]": {"details": "Prestwick library screen, Myrcludex B-FITC binding, 10 µM drug"}, "[4]": {"details": "Prestwick library screen, taurocholate uptake, 10 µM drug"}, "[5]": {"details": "ranking score beside the functional and binding assay B-scores of the screen"}, "[6]": {"details": "screen, 10 µM drug, Myrcludex B-FITC binding"}, "[7]": {"details": "combined ranking from functional and binding screening assays"}, "[8]": {"details": "screen, 10 µM drug, taurocholate uptake"}, "[9]": {"details": "Prestwick library screen, 10 µM drug, B-score of Myrcludex B-FITC binding"}, "[10]": {"details": "Prestwick library screen, 10 µM drug, B-score of taurocholate uptake"}, "[11]": {"details": "combined ranking from functional and binding assay B-scores"}},
  "note": "Where a name gives a salt, the structure may show the parent alone. Read-outs that look alike come from different tables or passages of the source.",
  "data": [
    {"compound": "CC[C@@H](C(N)=O)N1CCCC1=O", "note": "[Levetiracetam]", "values": [
      {"measurement": "B-score binding assay", "setting": "human NTCP [1]; [3]", "value": 0.117},
      {"measurement": "B-score functional assay", "setting": "human NTCP [2]; [4]", "value": -0.058},
      {"measurement": "Ranking score", "setting": "human NTCP [2]; [5]", "value": 657.267}
    ]},
    {"compound": "C[C@@H]1CN([C@H]2CC[C@](C#N)(c3ccc(F)cc3)CC2)CC[C@]1(C(=O)O)c1ccccc1", "note": "[Levocabastine hydrochloride]", "values": [
      {"measurement": "B-score binding assay", "setting": "human NTCP [1]; [3]", "value": 1.175},
      {"measurement": "B-score functional assay", "setting": "human NTCP [2]; [4]", "value": -0.031},
      {"measurement": "Ranking score", "setting": "human NTCP [2]; [5]", "value": 801.329}
    ]},
    {"compound": "C[C@H](N)[C@H](O)c1ccc(O)c(O)c1", "note": "[Levonordefrin]", "values": [
      {"measurement": "B-score binding assay", "setting": "human NTCP [1]; [6]", "value": -1.559},
      {"measurement": "Ranking score", "setting": "human NTCP [2]; [7]", "value": 346.693},
      {"measurement": "B-score functional assay", "setting": "human NTCP [2]; [8]", "value": 0.177}
    ]},
    {"compound": "CCC(=O)O[C@@](Cc1ccccc1)(c1ccccc1)[C@@H](C)CN(C)C", "note": "[Levopropoxyphene napsylate]", "values": [
      {"measurement": "B-score binding assay", "setting": "human NTCP [1]", "value": 0},
      {"measurement": "B-score functional assay", "setting": "human NTCP [2]", "value": 0.245},
      {"measurement": "Ranking score", "setting": "human NTCP [2]", "value": 726.763}
    ]},
    {"compound": "CCN(CC)CC(=O)Nc1c(C)cccc1C", "note": "[Lidocaine hydrochloride]", "values": [
      {"measurement": "B-score binding assay", "setting": "human NTCP [1]; [3]", "value": 0.07},
      {"measurement": "B-score functional assay", "setting": "human NTCP [2]; [4]", "value": 0.516},
      {"measurement": "Ranking score", "setting": "human NTCP [2]; [5]", "value": 815.009}
    ]},
    {"compound": "CCC[C@@H]1C[C@@H](C(=O)N[C@@H]([C@H]2O[C@H](SC)[C@H](O)[C@@H](O)[C@H]2O)[C@@H](C)O)N(C)C1", "note": "[Lincomycin hydrochloride]", "values": [
      {"measurement": "B-score binding assay", "setting": "human NTCP [1]; [9]", "value": 0.419},
      {"measurement": "B-score functional assay", "setting": "human NTCP [2]; [10]", "value": 0.903},
      {"measurement": "Ranking score", "setting": "human NTCP [2]; [11]", "value": 960.458}
    ]},
    {"compound": "COc1cccc(N(C)C(=S)Oc2ccc3c(c2)CCCC3)n1", "note": "[Liranaftate]", "values": [
      {"measurement": "B-score binding assay", "setting": "human NTCP [1]; [9]", "value": 0.615},
      {"measurement": "B-score functional assay", "setting": "human NTCP [2]; [10]", "value": 0.374},
      {"measurement": "Ranking score", "setting": "human NTCP [2]; [11]", "value": 904.804}
    ]},
    {"compound": "NCCCC[C@H](N[C@@H](CCc1ccccc1)C(=O)O)C(=O)N1CCC[C@H]1C(=O)O", "note": "[Lisinopril]", "values": [
      {"measurement": "B-score binding assay", "setting": "human NTCP [1]; [6]", "value": -1.412},
      {"measurement": "Ranking score", "setting": "human NTCP [2]; [7]", "value": 445.618},
      {"measurement": "B-score functional assay", "setting": "human NTCP [2]; [8]", "value": 1.757}
    ]},
    {"compound": "CCn1cc(C(=O)O)c(=O)c2cc(F)c(N3CCNC(C)C3)c(F)c21", "note": "(stereo not drawn) [Lomefloxacin hydrochloride]", "values": [
      {"measurement": "B-score binding assay", "setting": "human NTCP [1]; [3]", "value": 0.323},
      {"measurement": "B-score functional assay", "setting": "human NTCP [2]; [4]", "value": 0.226},
      {"measurement": "Ranking score", "setting": "human NTCP [2]; [5]", "value": 831.882}
    ]},
    {"compound": "COc1ccc(CN2CCN(C(c3ccc(F)cc3)c3ccc(F)cc3)CC2)c(OC)c1OC.Cl.Cl", "note": "[Lomerizine hydrochloride]", "values": [
      {"measurement": "B-score binding assay", "setting": "human NTCP [1]; [6]", "value": -1.084},
      {"measurement": "Ranking score", "setting": "human NTCP [2]; [7]", "value": 328.713},
      {"measurement": "B-score functional assay", "setting": "human NTCP [2]; [8]", "value": -0.214}
    ]},
    {"compound": "CN1CCN(C2=Nc3ccccc3Oc3ccc(Cl)cc32)CC1", "note": "[Loxapine succinate]", "values": [
      {"measurement": "B-score binding assay", "setting": "human NTCP [1]; [6]", "value": 0.552},
      {"measurement": "Ranking score", "setting": "human NTCP [2]; [7]", "value": 424.073},
      {"measurement": "B-score functional assay", "setting": "human NTCP [2]; [8]", "value": -1.397}
    ]},
    {"compound": "C#C[C@]1(O)CC[C@H]2[C@@H]3CCC4=CCCC[C@@H]4[C@H]3CC[C@@]21C", "note": "[Lynestrenol]", "values": [
      {"measurement": "B-score binding assay", "setting": "human NTCP [1]; [9]", "value": 0.007},
      {"measurement": "B-score functional assay", "setting": "human NTCP [2]; [10]", "value": 2.662},
      {"measurement": "Ranking score", "setting": "human NTCP [2]; [11]", "value": 897.58}
    ]},
    {"compound": "NCc1ccc(S(N)(=O)=O)cc1", "note": "[Mafenide hydrochloride]", "values": [
      {"measurement": "B-score binding assay", "setting": "human NTCP [1]; [3]", "value": -0.055},
      {"measurement": "B-score functional assay", "setting": "human NTCP [2]; [4]", "value": 0.341},
      {"measurement": "Ranking score", "setting": "human NTCP [2]; [5]", "value": 703.397}
    ]},
    {"compound": "CNCCCC12CCC(c3ccccc31)c1ccccc12", "note": "[Maprotiline hydrochloride]", "values": [
      {"measurement": "B-score binding assay", "setting": "human NTCP [1]; [6]", "value": -0.835},
      {"measurement": "Ranking score", "setting": "human NTCP [2]; [7]", "value": 403.36},
      {"measurement": "B-score functional assay", "setting": "human NTCP [2]; [8]", "value": -0.051}
    ]},
    {"compound": "COC(=O)Nc1nc2ccc(C(=O)c3ccccc3)cc2[nH]1", "note": "[Mebendazole]", "values": [
      {"measurement": "B-score binding assay", "setting": "human NTCP [1]; [6]", "value": -0.531},
      {"measurement": "Ranking score", "setting": "human NTCP [2]; [7]", "value": 327.443},
      {"measurement": "B-score functional assay", "setting": "human NTCP [2]; [8]", "value": -0.824}
    ]},
    {"compound": "CN1CCc2c(c3ccccc3n2Cc2ccccc2)C1.O=S(=O)(O)c1cccc2c(S(=O)(=O)O)cccc12", "note": "[Mebhydroline 1,5-naphtalenedisulfonate]", "values": [
      {"measurement": "B-score binding assay", "setting": "human NTCP [1]; [9]", "value": 1.889},
      {"measurement": "B-score functional assay", "setting": "human NTCP [2]; [10]", "value": 0.022},
      {"measurement": "Ranking score", "setting": "human NTCP [2]; [11]", "value": 893.031}
    ]},
    {"compound": "CNC1(C)C2CCC(C2)C1(C)C", "note": "(stereo not drawn) [Mecamylamine hydrochloride]", "values": [
      {"measurement": "B-score binding assay", "setting": "human NTCP [1]; [6]", "value": -0.663},
      {"measurement": "Ranking score", "setting": "human NTCP [2]; [7]", "value": 340.338},
      {"measurement": "B-score functional assay", "setting": "human NTCP [2]; [8]", "value": -0.591}
    ]},
    {"compound": "CN(C)CCOC(=O)COc1ccc(Cl)cc1.Cl", "note": "[Meclofenoxate hydrochloride]", "values": [
      {"measurement": "B-score binding assay", "setting": "human NTCP [1]; [6]", "value": -1.168},
      {"measurement": "Ranking score", "setting": "human NTCP [2]; [7]", "value": 355.4},
      {"measurement": "B-score functional assay", "setting": "human NTCP [2]; [8]", "value": -0.036}
    ]},
    {"compound": "CC(=O)[C@H]1CC[C@H]2[C@@H]3C[C@H](C)C4=CC(=O)CC[C@]4(C)[C@H]3[C@@H](O)C[C@]12C", "note": "[Medrysone]", "values": [
      {"measurement": "B-score binding assay", "setting": "human NTCP [1]; [6]", "value": -0.142},
      {"measurement": "Ranking score", "setting": "human NTCP [2]; [7]", "value": 406.005},
      {"measurement": "B-score functional assay", "setting": "human NTCP [2]; [8]", "value": -0.706}
    ]},
    {"compound": "CCN(CC)CCNC(=O)COc1ccc(OC)cc1.Cl", "note": "[Mefexamide hydrochloride]", "values": [
      {"measurement": "B-score binding assay", "setting": "human NTCP [1]; [9]", "value": 0.456},
      {"measurement": "B-score functional assay", "setting": "human NTCP [2]; [10]", "value": 1.015},
      {"measurement": "Ranking score", "setting": "human NTCP [2]; [11]", "value": 979.142}
    ]},
    {"compound": "OC(c1cc(C(F)(F)F)nc2c(C(F)(F)F)cccc12)C1CCCCN1", "note": "(stereo not drawn) [Mefloquine hydrochloride]", "values": [
      {"measurement": "B-score binding assay", "setting": "human NTCP [1]; [3]", "value": -0.336},
      {"measurement": "B-score functional assay", "setting": "human NTCP [2]; [4]", "value": 1.734},
      {"measurement": "Ranking score", "setting": "human NTCP [2]; [5]", "value": 704.329}
    ]},
    {"compound": "CC(=O)O[C@]1(C(C)=O)CC[C@H]2[C@@H]3C=C(C)C4=CC(=O)CC[C@]4(C)[C@H]3CC[C@@]21C", "note": "[Megestrol acetate]", "values": [
      {"measurement": "B-score binding assay", "setting": "human NTCP [1]; [9]", "value": 0.319},
      {"measurement": "B-score functional assay", "setting": "human NTCP [2]; [10]", "value": 0.476},
      {"measurement": "Ranking score", "setting": "human NTCP [2]; [11]", "value": 869.581}
    ]}
  ]
}
